Assay results published in patent US20140194531A1, “HYDROXYTYROSOL BENEFITS MITOCHONDRIA” (DSM IP Assets B.V., priority 2008, published 2014).

Key:
[1] = test system: mice (C57BL/6NCrl); assay: Maximal running performance on a treadmill (endurance); assay type: in vivo; details: olive extract containing 50% hydroxytyrosol, 50, 150 or 300 mg/kg body weight per day by gavage, 3 weeks
Source text: The purpose of the study was to determine the effect of hydroxytyrosol on maximal running performance on a treadmill.
In short, forty mice (C57BL/6NCrl; 8 wks old) were purchased from Charles River (Sulzfeld, Germany) and housed individually with free access to water and feed, with an alternating 12-hour light-dark cycle. The animals were fed a standard rodent diet (Ssniff R/M-H, Ext. n° V1536, Ssniff Ltd., Soest, Germany). After 2 weeks of adaptation to the diet the mice were randomized according to body weight into four experimental groups of 10 animals. The four groups were treated orally every morning for 3 weeks with either water (control group) or with an olive extract diluted to 0.2 ml with water and containing 50% hydroxytyrosol at doses of 50, 150, or 300 mg/kg body weight per day. There was no difference in feed consumption over the whole experiment. After 3 weeks of treatment the maximal running distance on a treadmill was measured. Statistical significance of the mean differences between dietary groups was tested by one-way analysis of variance (ANOVA). If significant differences were found, the Dunnett's test for multiple comparison was used to compare each group to the control group. P values less than 0.05 were considered significant.

[2] = test system: PGC-1α; assay: PGC-1α protein level in adipocytes (Western blot); assay type: cell-based, murine; details: 3T3-L1 adipocytes, 1.0 μM, maximum, p<0.05 vs. control
Protocol: Murine 3T3-L1 pre-adipocytes (American Type Culture Collection) were cultured in Dulbecco's Modified Eagle's Medium (DMEM) supplemented with 10% fetal bovine serum and allowed to reach confluence. Differentiation of pre-adipocytes was initiated with 1 μM insulin, 0.25 μM dexamethasone and 0.5 mM 3-isobutyl-1-methylxanthine in DMEM, supplemented with 10% fetal bovine serum. After 48 h, the culture medium was replaced with DMEM supplemented with 10% fetal bovine serum and 1 μM insulin. The culture medium was changed every other day with DMEM containing 10% fetal bovine serum. […] After treatment, cells were washed twice with ice-cold PBS, lysed in sample buffer (62.5 mM Tris-Cl pH 6.8, 2% SDS, 5 mM DTT) at room temperature and vortexed. Cell lysates were then boiled for 5 minutes and cleared by centrifugation (13,000 rpm, 10 minutes at 4° C.). Protein concentration was determined using the Bio-Rad DC protein assay. The soluble lysates (10 μg per lane) were subjected to 10% SDS-PAGE, proteins were then transferred to nitrocellulose membranes and blocked with 5% non-fat milk/TBST for 1 h at room temperature. […] Western blots were developed using ECL (Roche Manheim, Germany) and quantified by scanning densitometry.

[3] = test system: mitochondrial electron transport complex I; assay: Mitochondrial complex I protein expression in adipocytes (Western blot); assay type: cell-based, murine; details: 3T3-L1 adipocytes, 48 hrs
Protocol: Murine 3T3-L1 pre-adipocytes (American Type Culture Collection) were cultured in Dulbecco's Modified Eagle's Medium (DMEM) supplemented with 10% fetal bovine serum and allowed to reach confluence. Differentiation of pre-adipocytes was initiated with 1 μM insulin, 0.25 μM dexamethasone and 0.5 mM 3-isobutyl-1-methylxanthine in DMEM, supplemented with 10% fetal bovine serum. After 48 h, the culture medium was replaced with DMEM supplemented with 10% fetal bovine serum and 1 μM insulin. The culture medium was changed every other day with DMEM containing 10% fetal bovine serum. […] After treatment, cells were washed twice with ice-cold PBS, lysed in sample buffer (62.5 mM Tris-Cl pH 6.8, 2% SDS, 5 mM DTT) at room temperature and vortexed. Cell lysates were then boiled for 5 minutes and cleared by centrifugation (13,000 rpm, 10 minutes at 4° C.). Protein concentration was determined using the Bio-Rad DC protein assay. The soluble lysates (10 μg per lane) were subjected to 10% SDS-PAGE, proteins were then transferred to nitrocellulose membranes and blocked with 5% non-fat milk/TBST for 1 h at room temperature. Membranes were incubated with primary antibodies directed against PPAR-y (1:1000), PGC-1α (1:1000), α-tubulin (1:10 000), Complex I (1:2000), Complex II (1:2000), Complex III (1:2000) and Complex V (1:2000) in 5% milk/TBST at 4° C. overnight. After washing membranes with TBST three times, membranes were incubated with horseradish peroxidase-conjugated secondary antibody for 1 h at room temperature. Western blots were developed using ECL (Roche Manheim, Germany) and quantified by scanning densitometry.

OCCc1ccc(O)c(O)c1 [hydroxytyrosol, 3,4-dihydroxyphenylethanol]
increase of endurance [1]: up to 50% | PGC-1α protein expression (PGC-1α:α-tubulin ratio, vs. control) [2]: 205±52% | mitochondrial electron transport complex I protein (vs. control) ([3]; 0.1 μM, p<0.05): 131±16% | mitochondrial electron transport complex I protein (vs. control) ([3]; 1.0 μM, p<0.01): 163±31% | mitochondrial electron transport complex I protein (vs. control) ([3]; 10.0 μM, p<0.05): 138±21%
